Results taken from patent publication US20140023611A1 (priority 2010, published 2014).

Columns and labels:
[1] = test system: uptake of phosphate from the intestine; experiment: In vivo assay: bolus phosphorus (phosphate) challenge; parameters: species or system Sprague-Dawley rats; settings: Structure (V) examples, Table 4, rat, oral 30 mg/kg
Protocol: By pretreating animals with a low phosphorus diet followed by the subsequent dosing of a phosphorus bolus, serum phosphorus levels were monitored after 30 minutes as a surrogate for intestinal phosphorus absorption. […] The in vivo bolus phosphorus challenge model used here mimics this model in rats.
Male, 7-week-old Sprague-Dawley rats (Charles-River laboratories international, Hollister, Calif.) were allowed to acclimatize for a minimum of 3 days before switching to a synthetic low-phosphorus diet (TD.85010, Harlan Teklad, Madison, Wis.) which contains 0.1% phosphorus and 0.6% calcium. At day 5, testing compounds or vehicle alone (as indicated) were orally administered at the indicated dose in a volume of 5 ml/kg, followed by a bolus gavage of monobasic sodium phosphate (1 mmol in 1 ml) 15 min after compound dosing. Serum was collected via retroorbital bleeding 30 min post phosphate bolus and phosphate levels were determined utilizing an ACE ALERA blood chemistry analyzer (Alfa Wassermann Diagnostic Technologies, West Caldwell, N.J.). […]
Male, 7-week-old Sprague-Dawley rats (Charles-River laboratories international, Hollister, Calif.) were allowed to acclimate for a minimum of 3 days before switching to a synthetic low-phosphorus diet (TD.85010, Harlan Teklad, Madison, Wis.) which contains 0.1% phosphorus and 0.6% calcium. At day 5, testing compounds or vehicle alone (as indicated) were orally administered at the indicated dose in a volume of 5 ml/kg, followed by a bolus gavage of monobasic sodium phosphate (1 mmol in 1 ml) 15 min after compound dosing. Serum was collected via retroorbital bleeding 30 min post phosphate bolus and phosphate levels were determined utilizing an ACE ALERA blood chemistry analyzer (Alfa Wassermann Diagnostic Technologies, West Caldwell, N.J.).
Serum was collected 30 minutes after gavage, and phosphate levels measured. […] The in vivo bolus phosphate challenge model used here mimics this model in rats.
Male, 7-week-old Sprague-Dawley rats (Charles-River laboratories international, Hollister, Calif.) were allowed to acclimatize for a minimum of 3 days before switching to a low-phosphorus diet (TD.85010, Harlan Teklad, Madison, Wis.) which contains 0.1% phosphorus and 0.6% calcium. At day 5, testing compounds or vehicle alone (as indicated) were orally administered at the indicated dose in a volume of 5 ml/kg, followed by a bolus gavage of monobasic sodium phosphate (1 mmol in 1 ml) 15 min after compound dosing. Serum was collected via retroorbital bleeding 30 min post phosphate bolus and serum phosphate levels were determined utilizing an ACE ALERA blood chemistry analyzer (Alfa Wassermann Diagnostic Technologies, West Caldwell, N.J.).
The representative data on effects of test compounds on serum phosphate levels are shown in Table 4 (data are expressed as mean±SD, with 6 animals per data point). The differences between groups were evaluated by one-way analysis of variance with Dunnett's post hoc tests.

rat NaP2b (SLC34A2) [2] = target: T1, rat NaP2b (SLC34A2) (Rattus norvegicus, UniProt Q9JJ09); experiment: NaP2b-mediated Pi transport (33P uptake) in transfected HEK293 cells, rat NaP2b; type: cell-based; settings: Structure (V) examples, Table 2; rat NaP2b, HEK293; read-out: pIC50 Range (converted)
T1 construct: host or cells: HEK293
T1 sequence (Q9JJ09 1-695): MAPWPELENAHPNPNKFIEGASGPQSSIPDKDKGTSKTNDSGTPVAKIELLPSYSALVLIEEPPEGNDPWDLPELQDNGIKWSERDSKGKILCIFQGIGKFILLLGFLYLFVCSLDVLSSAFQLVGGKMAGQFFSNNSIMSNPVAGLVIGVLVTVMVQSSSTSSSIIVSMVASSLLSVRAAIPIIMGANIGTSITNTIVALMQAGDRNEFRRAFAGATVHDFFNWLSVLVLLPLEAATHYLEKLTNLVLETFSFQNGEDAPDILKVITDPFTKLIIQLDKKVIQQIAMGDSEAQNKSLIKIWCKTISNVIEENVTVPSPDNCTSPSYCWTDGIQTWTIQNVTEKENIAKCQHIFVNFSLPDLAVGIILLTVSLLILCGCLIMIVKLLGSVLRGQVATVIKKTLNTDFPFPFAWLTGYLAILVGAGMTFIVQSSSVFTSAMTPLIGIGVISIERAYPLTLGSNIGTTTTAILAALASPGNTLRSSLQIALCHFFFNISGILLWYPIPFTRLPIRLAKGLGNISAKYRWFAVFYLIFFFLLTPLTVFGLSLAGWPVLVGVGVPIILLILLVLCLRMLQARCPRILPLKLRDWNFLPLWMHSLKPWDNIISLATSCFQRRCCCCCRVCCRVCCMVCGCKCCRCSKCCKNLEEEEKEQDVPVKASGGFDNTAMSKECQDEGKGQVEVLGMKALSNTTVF
Protocol: HEK293 cells were obtained from the American Type Culture collection and propagated per their instructions. Expression clones for rat and human NaP2b (SLC34A2) were obtained from Open Biosystems (Catalog numbers MRN1768-9510282, and MHS1010-99823026, respectively). The sequence of the human protein was mutated to insert a threonine after residue 37, and to introduce a N39D mutation.
(§1) The rate of phosphate (Pi) uptake into HEK293 cells was measured using a modification of the method described by Mohrmann et al. (Mohrmann, I., Mohrmann, M., Biber, J., and Murer, H. (1986) Am. J. Phys. 250(3 Pt 1):G323-30.) Transfected HEK293 cells were treated with a pharmacological agent to minimize endogenous PiT-mediated phosphate transport activity, such that the only remaining sodium-dependent phosphate transport activity is that which was bestowed by introduction of the NaP2b genes.
(§2) Cells were seeded into 96-well plates at 25,000 cells/well and cultured overnight. Lipofectamine 2000 (Invitrogen) was used to introduce the NaP2b cDNA, and the cells were allowed to approach confluence during a second overnight incubation. […] Cells were then overlayed with either choline uptake buffer or sodium uptake buffer (14 mM Tris, 137 mM sodium chloride, 5.4 mM KCl, 2.8 mM CaCl2, 1.2 mM MgSO4, 100 uM KH2PO4, PiT-silencing agent, 1 mg/mL Bovine Serum Albumin, pH 7.4) containing 6-9 uCi/mL ^33P orthophosphoric acid (Perkin Elmer) and test compound. Each compound was tested at twelve concentrations ranging from 0.1 nM to 30 uM. Assays were run in duplicate.
After incubation for 3-30 minutes at room temperature, assay mixtures were removed, and the cells were washed twice with ice cold stop solution (137 mM sodium chloride, 14 mM Tris, pH 7.4). Cells were lysed by addition of 20 μL 0.1% Tween 80 followed by 100 μL scintillation fluid, and counted using a TopCount (Perkin Elmer).
pIC50 (the negative log of the IC50) values of the test compounds were calculated using GraphPad Prism.
HEK293 cells were obtained from the American Type Culture collection and propagated per their instructions. Expression clones for rat and mouse NaP2b (SLC34A2) cDNAs were obtained from Open Biosystems (Catalog numbers MRN1768-9510282 and MMM1013-98478398 respectively).
as §1, with “phosphate” for “phosphate (Pi)”
as §2, with “agent, 0.1% wt/v bovine serum albumin,” for “agent, 1 mg/mL Bovine Serum Albumin,”, “Each compounds” for “Each compound”
After incubation for 3-30 minutes at room temperature, assay mixtures were removed, and the cells were washed twice with ice cold stop solution (137 mM sodium chloride, 14 mM Tris, pH 7.4).

rat NaP2b (SLC34A2) [3] = target: T1, rat NaP2b (SLC34A2); experiment: Inhibition of NaP2b-mediated Pi (33P) uptake in transfected HEK293 cells, rat NaP2b; type: cell-based; settings: 33P Pi uptake, 0.1 mM phosphate, value given as pIC50 range
Method in brief: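 HEK293 cells were transiently transfected with NaP2b cDNA using Lipofectamine and grown near confluence. Compounds were tested at twelve concentrations from 0.1 nM to 30 uM in duplicate, and 33P-phosphate uptake was counted by scintillation after lysis. Results are expressed as pIC50.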

NaPi2b = experiment: Competition with phosphate: Pi uptake assay repeated at 2.1 vs 0.1 mM phosphate; type: cell-based; settings: potency at 2.1 vs 0.1 mM phosphate
Source text: For example, a phosphate uptake assay can be performed and the IC50 values for a compound at different phosphate concentrations can be determined (e.g., “Enzyme kinetics”, I. Segel, 1975, John-Wiley & Sons, p. 123). IC50 values for non-competitive inhibitors will remain the same or similar with respect to the phosphate concentration, whereas IC50 values for competitive inhibitors will increase (i.e lose potency) as phosphate concentration increases.
To ascertain if an inhibitor was competitive for binding with phosphate, the procedure was repeated, but raising the concentration of the substrate in the assay mixture from 0.1 to 2.1 mM phosphate.

human NaP2b (SLC34A2) = target: T2, human NaP2b (SLC34A2) (Homo sapiens, UniProt O95436); experiment: Inhibition of NaP2b-mediated Pi (33P) uptake in transfected HEK293 cells, human NaP2b; type: cell-based; settings: read-out: pIC50 range for human NaP2b (converted)
T2 construct: host or cells: HEK293
T2 sequence (O95436 1-690): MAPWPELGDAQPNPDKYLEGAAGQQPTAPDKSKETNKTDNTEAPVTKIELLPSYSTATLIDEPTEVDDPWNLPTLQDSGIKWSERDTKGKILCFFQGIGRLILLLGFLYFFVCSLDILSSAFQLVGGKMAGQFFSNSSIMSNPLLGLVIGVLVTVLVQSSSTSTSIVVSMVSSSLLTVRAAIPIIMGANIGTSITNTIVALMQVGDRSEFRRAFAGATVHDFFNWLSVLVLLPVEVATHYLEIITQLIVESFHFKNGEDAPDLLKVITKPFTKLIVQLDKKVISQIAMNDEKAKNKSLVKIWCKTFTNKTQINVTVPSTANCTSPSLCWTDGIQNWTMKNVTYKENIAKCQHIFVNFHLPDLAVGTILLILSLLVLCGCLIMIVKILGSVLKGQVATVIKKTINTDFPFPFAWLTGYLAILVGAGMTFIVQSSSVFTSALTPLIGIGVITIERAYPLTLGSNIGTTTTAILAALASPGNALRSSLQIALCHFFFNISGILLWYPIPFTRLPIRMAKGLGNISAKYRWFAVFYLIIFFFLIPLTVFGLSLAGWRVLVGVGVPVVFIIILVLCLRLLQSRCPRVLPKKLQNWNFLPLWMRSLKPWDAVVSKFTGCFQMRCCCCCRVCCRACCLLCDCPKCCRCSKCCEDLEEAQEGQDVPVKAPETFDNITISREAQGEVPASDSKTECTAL
Method in brief: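 HEK293 cells transiently transfected with human NaP2b (Thr inserted after residue 37, N39D), endogenous PiT transport pharmacologically silenced. Sodium or choline buffer, pH 7.4, with 100 uM KH2PO4, 33P orthophosphate and compound (0.1 nM–30 uM, twelve concentrations, duplicate). 3-30 min at room temperature, scintillation counting, pIC50 derived.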

Row | SMILES | % Decrease in serum [Pi] [1] [%] | Serum increase [Pi] mg/dL from baseline low PI state ([1]; mean ± SD, vehicle 5.0 ± 1.3) [mg/dL] | IC50 (rat NaP2b (SLC34A2) [2]) [nM] | IC50 (rat NaP2b (SLC34A2) [3]) [nM] | Competitive with respect to Pi? (NaPi2b) | IC50 (human NaP2b (SLC34A2)) [nM]
1 | O=C(Nc1ccc(N2CCCCC2)cc1C(=O)N/N=C/c1ccc(Cl)c(C(F)(F)F)c1)c1cccc(Cn2cnc(CCO)c2)c1 [Ex. 47, (E)-N-(2-(2-(4-chloro-3-(trifluoromethyl)benzylidene)hydrazinecarbonyl)-4-(piperidin-1-yl)phenyl)-3-((4-(2-hydroxyethyl)-1H-imidazol-1-yl)methyl)benzamide] | 28 | 3.6 ± 1.1 | 100 to 794 |  |  | 
2 | O=C(O)Cc1cccc(SCc2cccc(C(=O)Nc3ccc(N4CCCCC4)cc3-c3cc(C(=O)NCc4cccc(C(F)(F)F)c4)ccn3)c2)c1 [Example 8.18] |  |  |  | < 1000 | No | 
3 | O=C(O)c1cccc(S(=O)(=O)Cc2cccc(C(=O)Nc3ccc(N4CCCCC4)cc3-c3cc(C(=O)NCc4cccc(C(F)(F)F)c4)ccn3)c2)c1 [Example 8.26, 3-((3-((4-(Piperidin-1-yl)-2-(4-((3-(trifluoromethyl)benzyl)carbamoyl)pyridin-2-yl)phenyl)carbamoyl)benzyl)sulfonyl)benzoic acid] |  |  |  | 10000 to 31600 | No | 
4 | O=C(O)CCOCCOCCOCCNC(=O)c1cccc(SCc2cccc(C(=O)Nc3ccc(N4CCCCC4)cc3-c3cc(C(=O)NCc4cccc(C(F)(F)F)c4)ccn3)c2)c1 [Example 10.1, 1-oxo-1-(3-(3-(4-(piperidin-1-yl)-2-(4-(3-(trifluoromethyl)benzyl-carbamoyl)pyridin-2-yl)phenylcarbamoyl)benzylthio)phenyl)-5,8,11-trioxa-2-azatetradecan-14-oic acid] |  |  |  | 1000 to 7940 | No | < 1000
